Literature values, collected in patent US20090202626A1, “TREATMENT OF BLADDER DISEASES WITH A TLR7 ACTIVATOR” (priority 2008, published 2009).

How the values were obtained:
[1] = tested on: superficial skin cancer; settings: in vivo
[2] = tested on: orthotopic bladder cancer
[3] = tested on: FCB bladder tumor

CC(C)Cn1cnc2c(N)nc3ccccc3c21 [Imiquimod, imiquimod]
efficacy in superficial skin cancer [1]: demonstrated efficacy
mice that developed tumors ([2]; 100 μg once weekly, placebo 11 of 13 mice (85%)): 3 of 14
anti-tumor activity ([2]; orthotopic bladder cancer mouse model): potent anti-tumor activity
effect on FCB bladder tumor ([3]; mice): cured mice
effect on chemically induced bladder cancer ([3]; mouse, in vivo): inhibited
